Assay results published in patent publication US7271161B2, “Platinum complexes as antitumor agents in combination with biochemical modulation” (Board of Regents, the University of Texas System, priority 2002, dated 2007).
Where two headings read alike, the source gives them in different places.

Legend:
[1] = system: SKOV-3 cell line; assay: MTT cytotoxicity assay, cisplatin-resistant SKOV-3 cells, with or without BSO; type: cell-based, Human; conditions: for IC50: Table 4; for IC50 / DMF +BSO (MTC) / DMF Control: SKOV-3; for DMF +BSO (MTC) / DMF Control: Table 5; for DMF Control: absence of BSO (reference)
Excerpt: (§1) The ovarian A2780 and 2008 cell lines are sensitive to cisplatin, while the corresponding 2780CP and 2008/C13* cell lines were selected for resistance following in vitro exposure to cisplatin. The SKOV-3 cell line was established from a patient who was resistant to cisplatin therapy and is considered a model of cisplatin resistance. The A2780 and 2780CP cells have wild-type p53 function, while SKOV-3 is devoid of p53 function. The p53 status for the 2008 and 2008/C131 cells is presently not known.
(§2) Procedure for Cytotoxic Evaluation. All cell lines are maintained in RPMI 1640 medium supplemented with 10% fetal bovine serum, 50 μg/ml penicillin, 50 μg/ml streptomycin, 100 μg/ml neomycin and 0.3 mg/ml L-glutamine. The ovarian lines also require 2 μg/ml insulin for maximal growth. Cells are grown as monolayers at 37° C. in a humidified atmosphere of 5% CO2:95% air. Cytotoxicity is determined by a standard MTT assay. Briefly, the exponentially-growing cells are trypsinized to dislodge them before use. After diluting the tumor cells to appropriate concentrations (2,000-30,000 cells/ml), 100 μl aliquots of the cell suspensions are added to each well of a 96-well microtiter plate. The cells are allowed to attach overnight, and then exposed for 24 hr to BSO at a concentration that is equal to or less than maximally tolerated concentration (MTC). At 22 hr after addition of BSO, the platinum complex is added, and 2 hr later the cells are washed and reincubated. After another 5 days, when control cells are in an exponential phase of growth, 50 μl of an MTT solution (3 mg/ml) is added to each well. Following a 3-hr incubation, the medium is removed and replaced by 50 μl of 100% DMSO to dissolve MTT formazan crystals. Plates are agitated on a plate shaker for 5 min, and absorbances are measured at 570 nm in a multiwell scanning spectrophotometer.
(§3) IC50 values, defined as the drug concentration (μM) inhibiting cell growth by 50% compared to control wells, are determined by fitting a sigmoidal curve to the data using a computer program. Resistance factor is calculated as a ratio of the IC50 against resistant cell line to the IC50 against parent cell line. The dose modification factor (DMF) is derived from a ratio of IC50 without BSO to that with BSO.

[2] = system: 2008 cell line; assay: MTT cytotoxicity assay, cisplatin-sensitive ovarian 2008 cells, with or without BSO; type: cell-based, Human; conditions: for IC50: Table 4
Excerpt: as §1, §2, §3

[3] = system: human melanoma cell line (RPMI 8322); conditions: cited from earlier work
[4] = system: Human A2780 cell line; assay: MTT cytotoxicity assay, cisplatin-sensitive ovarian A2780 cells, with or without BSO; type: cell-based; set-up: key to DMF vs. A2780 Control (Without BSO): DMF = IC50 without BSO / IC50 with BSO; conditions: for DMF vs. A2780 +10 μM BSO (MTC): IC50 without BSO / IC50 with 10 μM BSO (MTC); for DMF vs. A2780 Control (Without BSO): without BSO (reference)
Excerpt: as §1, §2, §3

[5] = system: Human 2780CP cell line; assay: MTT cytotoxicity assay, cisplatin-resistant ovarian 2780CP cells, with or without BSO; type: cell-based; set-up: key to DMF vs. 2780CP Control (Without BSO) / DMF Control / DMF +BSO (MTC): DMF = IC50 without BSO / IC50 with BSO; conditions: for Resistance Factor vs. 2780CP +10 μM BSO: IC50 2780CP with 10 μM BSO / IC50 A2780 without BSO; for Resistance Factor vs. 2780CP +3 mM BSO (MTC): IC50 2780CP with 3 mM BSO (MTC) / IC50 A2780 without BSO; for Resistance Factor vs. 2780CP Control (Without BSO): IC50 2780CP without BSO / IC50 A2780 without BSO; for DMF vs. 2780CP +10 μM BSO: IC50 without BSO / IC50 with 10 μM BSO; for DMF vs. 2780CP +3 mM BSO (MTC): IC50 without BSO / IC50 with 3 mM BSO (MTC); for DMF vs. 2780CP Control (Without BSO): without BSO (reference)
Excerpt: as §1, §2, §3

[6] = system: 2008/C13* cell line; assay: MTT cytotoxicity assay, cisplatin-resistant ovarian 2008/C13* cells, with or without BSO; type: cell-based, Human; conditions: for IC50: Table 4
Excerpt: as §1, §2, §3

[7] = system: sensitive and resistant cells; conditions: cited from earlier work
[8] = molecular target: T1, γ-Glutamylcysteine synthetase (Rattus norvegicus, UniProt P19468); conditions: cited from earlier work
T1 sequence (P19468 1-637): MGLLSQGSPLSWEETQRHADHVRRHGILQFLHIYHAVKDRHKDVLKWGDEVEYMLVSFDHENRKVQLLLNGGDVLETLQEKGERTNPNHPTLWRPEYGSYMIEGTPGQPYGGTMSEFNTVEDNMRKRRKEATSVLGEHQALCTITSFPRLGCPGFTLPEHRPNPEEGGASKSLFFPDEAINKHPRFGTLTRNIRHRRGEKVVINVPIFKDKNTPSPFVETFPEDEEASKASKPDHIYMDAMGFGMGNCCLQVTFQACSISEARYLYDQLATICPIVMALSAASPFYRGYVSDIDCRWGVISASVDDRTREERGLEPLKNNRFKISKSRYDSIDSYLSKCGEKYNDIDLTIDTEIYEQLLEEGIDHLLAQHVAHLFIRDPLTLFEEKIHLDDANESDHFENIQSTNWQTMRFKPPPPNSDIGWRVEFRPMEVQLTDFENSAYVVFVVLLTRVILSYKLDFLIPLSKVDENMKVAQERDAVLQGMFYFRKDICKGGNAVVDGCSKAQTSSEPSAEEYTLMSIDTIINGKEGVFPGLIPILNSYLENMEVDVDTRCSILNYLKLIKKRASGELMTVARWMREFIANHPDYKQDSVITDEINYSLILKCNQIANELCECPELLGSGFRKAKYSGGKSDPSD

[9] = BSO at sub-MTC, read-out: IC50 +BSO (MTC)
[10] = absence of BSO, read-out: IC50 Control
[11] = +10 μM BSO (MTC), 24 hr BSO, read-out: IC50 (μM) vs. A2780 +10 μM BSO (MTC)
[12] = without BSO, 2 hr platinum exposure, MTT after 5 days, read-out: IC50 (μM) vs. A2780 Control (Without BSO)
[13] = +10 μM BSO, read-out: IC50 (μM) vs. 2780CP +10 μM BSO
[14] = +3 mM BSO (MTC), read-out: IC50 (μM) vs. 2780CP +3 mM BSO (MTC)
[15] = without BSO, read-out: IC50 (μM) vs. 2780CP Control (Without BSO)

N.N.[Cl][Pt][Cl] [Complex 1, cis-diamminedichloroplatinum, reference compound]
IC50 [1, 9]: 21.1 µM
IC50 [1, 10]: 33 µM
DMF +BSO (MTC) ([1]; BSO at sub-MTC): 1.56
DMF Control [1]: 1.00
RF +BSO (MTC) ([1]; Table 6, SKOV-3 with BSO vs. 2008 without BSO): 14.9
RF Control ([1]; Table 6, SKOV-3 without BSO vs. 2008 without BSO): 23.2
IC50 ([2]; 2008, BSO at MTC, read-out: IC50 +BSO (MTC)): 770 nM
IC50 ([2]; 2008, absence of BSO, read-out: IC50 Control): 1420 nM
DMF +BSO (MTC) ([2]; Table 5, 2008, BSO at MTC): 1.84
DMF Control ([2]; Table 5, 2008, absence of BSO (reference)): 1.00
RF Control ([2]; Table 6, 2008 parent line without BSO (reference)): 1.00
dose modification factor (DMF), potentiation by BSO ([3]; BSO pretreatment, RPMI 8322): 1.5
IC50 ([4]; Table 4, A2780, BSO at MTC, read-out: IC50 +BSO (MTC)): 4.25 µM
IC50 ([4]; Table 4, A2780, absence of BSO, read-out: IC50 Control): 6.75 µM
DMF +BSO (MTC) ([4]; Table 5, A2780, BSO at MTC): 1.59
DMF Control ([4]; Table 5, A2780, absence of BSO (reference)): 1.00
RF Control ([4]; Table 6, A2780 parent line without BSO (reference)): 1.00
Resistance Factor vs. 2780CP +10 μM BSO [5]: 12.1
Resistance Factor vs. 2780CP +3 mM BSO (MTC) [5]: 8.63
Resistance Factor vs. 2780CP Control (Without BSO) [5]: 14.9
IC50 ([5]; Table 4, 2780CP, BSO at MTC, read-out: IC50 +BSO (MTC)): 58.3 µM
IC50 ([5]; Table 4, 2780CP, absence of BSO, read-out: IC50 Control): 101 µM
DMF +BSO (MTC) ([5]; Table 5, 2780CP, BSO at MTC): 1.73
DMF Control ([5]; Table 5, 2780CP, absence of BSO (reference)): 1.00
RF +BSO (MTC) ([5]; Table 6, 2780CP with BSO vs. A2780 without BSO): 8.63
RF Control ([5]; Table 6, 2780CP without BSO vs. A2780 without BSO): 14.9
increase in antitumor activity when combined with BSO ([5]; in both sensitive and resistant models (Table 2: A2780 and 2780CP)): less than 2 fold
IC50 ([6]; 2008/C13*, BSO at MTC, read-out: IC50 +BSO (MTC)): 10.4 µM
IC50 ([6]; 2008/C13*, absence of BSO, read-out: IC50 Control): 20.8 µM
DMF +BSO (MTC) ([6]; Table 5, 2008/C13*, BSO at MTC): 2.00
DMF Control ([6]; Table 5, 2008/C13*, absence of BSO (reference)): 1.00
RF +BSO (MTC) ([6]; Table 6, 2008/C13* with BSO vs. 2008 without BSO): 7.32
RF Control ([6]; Table 6, 2008/C13* without BSO vs. 2008 without BSO): 14.6
increase in antitumor activity in combination with BSO, isolated publications ([7]; isolated publications): up to 4 fold
increase in antitumor activity in combination with BSO, usual ([7]; usually): under 2 fold

[NH2][Pt]([Cl])([Cl])([Cl])([Cl])[NH]C1CCCCC1 [Complex 15]
IC50 [4, 11]: 0.72 µM
DMF vs. A2780 +10 μM BSO (MTC) [4]: 1.26
DMF vs. A2780 Control (Without BSO) [4]: 1.00
IC50 [4, 12]: 0.91 µM
IC50 [5, 13]: 10.8 µM
IC50 [5, 14]: 4.34 µM
Resistance Factor vs. 2780CP +10 μM BSO [5]: 11.9
Resistance Factor vs. 2780CP +3 mM BSO (MTC) [5]: 4.77
Resistance Factor vs. 2780CP Control (Without BSO) [5]: 16.9
DMF vs. 2780CP +10 μM BSO [5]: 1.43
DMF vs. 2780CP +3 mM BSO (MTC) [5]: 3.55
DMF vs. 2780CP Control (Without BSO) [5]: 1.00
IC50 [5, 15]: 15.4 µM

[NH2][Pt]([OH])([OH])([Cl])([Cl])[NH]C1CCCCC1 [Complex 16]
IC50 [4, 11]: 3.07 µM
DMF vs. A2780 +10 μM BSO (MTC) [4]: 1.16
DMF vs. A2780 Control (Without BSO) [4]: 1.00
IC50 [4, 12]: 3.55 µM
IC50 [5, 13]: 19.6 µM
IC50 [5, 14]: 8.92 µM
Resistance Factor vs. 2780CP +10 μM BSO [5]: 5.52
Resistance Factor vs. 2780CP +3 mM BSO (MTC) [5]: 2.51
Resistance Factor vs. 2780CP Control (Without BSO) [5]: 6.73
DMF vs. 2780CP +10 μM BSO [5]: 1.22
DMF vs. 2780CP +3 mM BSO (MTC) [5]: 2.68
DMF vs. 2780CP Control (Without BSO) [5]: 1.00
IC50 [5, 15]: 23.9 µM

[NH2][Pt]([OH])([OH])([Cl])([Cl])[N]1CCCCCC1 [Complex 18]
IC50 [1, 9]: 14.2 µM
IC50 [1, 10]: 140 µM
DMF +BSO (MTC) ([1]; BSO at sub-MTC): 9.86
DMF Control [1]: 1.00

CC(=O)[O][Pt]([NH2])([Cl])([Cl])([O]C(C)=O)[N]1CCCCCC1 [Complex 19]
IC50 [1, 9]: 21.6 µM
IC50 [1, 10]: 100 µM
DMF +BSO (MTC) ([1]; BSO at sub-MTC): 4.63
DMF Control [1]: 1.00

CCCCS(=N)(=O)CCC(N)C(=O)O (stereo not drawn) [S-butyl homocysteine sulfoximine]
inhibition effectiveness relative to methionine sulfoximine ([8]; vs. methionine sulfoximine): at least 100 times
inhibition effectiveness relative to prothionine sulfoximine ([8]; vs. prothionine sulfoximine): about 20 times

N[C@@H](Cc1ccc(N(CCCl)CCCl)cc1)C(=O)O [melphalan]
effect of BSO pretreatment on cytotoxicity [3]: enhanced cytotoxicity
